In paper PMC6934184, “Selective DNA-PKcs inhibition extends the therapeutic index of localized radiotherapy and chemotherapy” (The Journal of Clinical Investigation, 2019):

Target: T1, PRKCD (PKC delta) (Homo sapiens, UniProt Q05655)
T1 construct: purchased Thermo Fisher Scientific (Life Technologies) SelectScreen
Assay: SelectScreen Z'LYTE
Type: biochemical
Method in brief: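 Percent values come from Thermo SelectScreen profiling of NU5455, combining activity and binding assays. CSF1R was run in Z'LYTE format at Km app ATP, and CAMK1 in Adapta format with ATP listed at 10.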

T1 sequence (Q05655 whole entry): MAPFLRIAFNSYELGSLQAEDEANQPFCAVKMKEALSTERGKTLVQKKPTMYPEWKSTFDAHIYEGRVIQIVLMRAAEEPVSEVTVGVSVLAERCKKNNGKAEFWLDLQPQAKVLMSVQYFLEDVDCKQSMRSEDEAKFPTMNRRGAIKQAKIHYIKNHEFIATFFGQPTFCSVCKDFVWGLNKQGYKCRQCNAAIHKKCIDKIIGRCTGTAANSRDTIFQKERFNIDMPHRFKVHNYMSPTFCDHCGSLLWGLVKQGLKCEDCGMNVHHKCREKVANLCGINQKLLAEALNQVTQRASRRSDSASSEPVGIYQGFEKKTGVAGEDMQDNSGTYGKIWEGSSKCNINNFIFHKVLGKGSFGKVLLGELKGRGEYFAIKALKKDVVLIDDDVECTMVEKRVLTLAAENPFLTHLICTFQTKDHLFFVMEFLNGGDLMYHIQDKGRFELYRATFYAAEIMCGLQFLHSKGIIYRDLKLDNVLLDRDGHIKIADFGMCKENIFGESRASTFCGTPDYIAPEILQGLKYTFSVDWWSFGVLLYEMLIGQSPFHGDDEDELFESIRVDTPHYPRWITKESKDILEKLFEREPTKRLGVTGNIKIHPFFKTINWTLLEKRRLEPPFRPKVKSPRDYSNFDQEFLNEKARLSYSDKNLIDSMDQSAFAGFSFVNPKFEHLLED

## CN(C(=O)CN1CCOCC1)c1ccc2sc3c(-c4cccc5c(=O)cc(N6CC7CCC(C6)O7)oc45)cccc3c2c1 [NU5455]
  inhibition at 1 µM: 6.2%
